Results on five molecules are retold here after ChEMBL document CHEMBL5321224, “Antimicrobial peptides: Structure, mechanism, and modification” (2023).

Holding throughout (assay type): functional
Experiment [1] concerns Staphylococcus aureus. Nature of the experiment: Antimicrobial activity against Staphylococcus aureus assessed as reduction of microbial growth incubated for 24 hrs.
Experiment [2] relates to Escherichia coli. Briefly: Antimicrobial activity against Escherichia coli assessed as reduction of microbial growth incubated for 24 hrs.
The test system of experiment [3] is Pseudomonas aeruginosa. Nature of the experiment: Antimicrobial activity against Pseudomonas aeruginosa assessed as reduction of microbial growth incubated for 24 hrs.
Experiment [4] relates to Pseudomonas aeruginosa. Briefly: Antimicrobial activity against Pseudomonas aeruginosa KCTC 1637 measured after 18 hrs.
In experiment [5] the test system is Escherichia coli. Briefly: Antimicrobial activity against Escherichia coli D21 assessed as reduction of microbial growth. As to conditions: time 24 hrs.
The test system of experiment [6] is Staphylococcus aureus. Briefly: Antimicrobial activity against Staphylococcus aureus Cowan 1 assessed as reduction of microbial.
The subject of experiment [7] is Pseudomonas aeruginosa. Briefly: Antimicrobial activity against Pseudomonas aeruginosa OT97 assessed as reduction of microbial.
For experiment [8], the system named is Escherichia coli. Briefly: Antimicrobial activity against Escherichia coli ATCC 33694 measured after 18 hrs.
In experiment [9] the test system is Pseudomonas aeruginosa. Nature of the experiment: Antimicrobial activity against Pseudomonas aeruginosa measured after 18 hrs.

In the case of `CC[C@H](C)[C@H](NC(=O)CN)C(=O)NCC(=O)N[C@@H](C)C(=O)N[C@H](C(=O)N[C@@H](CC(C)C)C(=O)N[C@@H](CCCCN)C(=O)N[C@H](C(=O)N[C@@H](CC(C)C)C(=O)N[C@H](C(=O)N[C@H](C(=O)NCC(=O)N[C@@H](CC(C)C)C(=O)N[C@@H](CCCCN)C(=O)N[C@@H](Cc1c[nH]c2ccccc12)C(=O)N[C@@H](CCCCN)C(=O)N[C@@H](CC(C)C)C(=O)N[C@@H](Cc1ccccc1)C(=O)N[C@@H](CCCCN)C(=O)N[C@@H](CCCCN)C(=O)N[C@H](C(=O)N[C@@H](CCC(=O)O)C(=O)N[C@@H](CCCCN)C(=O)N[C@H](C(=O)NCC(=O)N[C@@H](CCC(N)=O)C(=O)N[C@@H](CC(N)=O)C(=O)N[C@H](C(=O)N[C@@H](CCCNC(=N)N)C(=O)N[C@@H](CC(=O)O)C(=O)NCC(=O)N[C@H](C(=O)N[C@H](C(=O)N[C@@H](CCCCN)C(=O)N[C@@H](C)C(=O)O)[C@@H](C)CC)[C@@H](C)CC)[C@@H](C)CC)C(C)C)[C@@H](C)CC)[C@@H](C)O)[C@@H](C)O)C(C)C)C(C)C`, the LD in the experiment on Staphylococcus aureus [1] was 5 µM; in the experiment on Escherichia coli [2] it was 0.7 µM; in the experiment with Pseudomonas aeruginosa [3] it was 8 µM.

In the experiment on Pseudomonas aeruginosa [4], H-KWKKLLKKPLLKKLLKKL-NH2 gave an LD of 0.78 µM.

For the molecule H-KWKLFKKIEKVGQNIRDGGIGAVLKV-OH, the LD came to 600 µM with Staphylococcus aureus [1], 1 µM in the experiment with Escherichia coli [2] and 15 µM in the experiment on Pseudomonas aeruginosa [3].

For the molecule H-KWKLFKKIGIGAVLKVLKTTGLPALI-OH, the LD stood at 0.3 µM in the experiment with Escherichia coli [5], 1 µM with Staphylococcus aureus [6] and 0.7 µM with Pseudomonas aeruginosa [7].

Regarding H-KWKLFKKIGIGKFLHSAKKF-NH2, the LD turned out to be 6.25 µM in the experiment on Escherichia coli [8] and 1.56 µM in the experiment with Pseudomonas aeruginosa [9].
